Data on two compounds can be found in publication PMC12549899 (Nature Communications, 2025).

Where “and” joins values, the source holds several entries; their conditions need not be identical. Identical values can stand only once. Like-named read-outs stand apart in the source and are kept apart here.

This assay deals with T1, DrOTOP1 I565W (Danio rerio, UniProt Q7ZWK8, I565W).
T1 construct: A previously generated codon-optimized full-length DrOTOP1[8]; (UniProt: Q7ZWK8) construct; expressed in transfected cells; host or cells: HEK-293 (CRL-1573, ATCC)
T1 sequence (Q7ZWK8 1-586 I565W): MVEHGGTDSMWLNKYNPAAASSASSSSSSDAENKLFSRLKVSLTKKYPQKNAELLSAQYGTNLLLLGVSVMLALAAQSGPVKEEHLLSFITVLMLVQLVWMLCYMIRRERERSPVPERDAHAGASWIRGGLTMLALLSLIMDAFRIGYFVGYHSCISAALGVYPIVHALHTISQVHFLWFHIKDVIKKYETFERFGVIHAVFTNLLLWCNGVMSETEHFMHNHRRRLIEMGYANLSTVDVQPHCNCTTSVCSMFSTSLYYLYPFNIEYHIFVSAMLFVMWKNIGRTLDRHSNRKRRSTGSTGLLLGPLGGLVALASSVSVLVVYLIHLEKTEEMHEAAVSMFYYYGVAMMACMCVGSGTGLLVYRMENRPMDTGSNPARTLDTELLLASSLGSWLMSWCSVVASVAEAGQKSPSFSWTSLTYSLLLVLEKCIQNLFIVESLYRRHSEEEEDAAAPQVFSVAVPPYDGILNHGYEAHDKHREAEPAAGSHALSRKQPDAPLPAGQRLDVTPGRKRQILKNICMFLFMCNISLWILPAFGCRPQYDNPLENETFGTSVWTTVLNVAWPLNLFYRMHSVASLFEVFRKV
Description: Whole-cell patch-clamp, inhibition of acid-evoked currents, DrOTOP1 I565W (C-domain pocket). In kind it is cell-based, zebrafish (Danio rerio). Set-up: key to inhibition of acid-evoked current, single cells: % inhibition = ((I2peak - I1)/I2peak)*100. As to conditions: for LogAbsoluteIC50: concentration in uM. An excerpt:
To experimentally verify whether C11 and C2.2 bind in the C-domain pocket as predicted, we used their docked poses to guide mutagenesis. The predicted interactions for C11 and C2.2 include π-stacking with F342 and Y422, potential H-bonding with Q542, N568, and R572 (Fig. 2J, K and Supplementary Fig. 5A), and hydrophobic packing. We generated single-residue mutants of these and other residues in DrOTOP1 that were expected to disrupt specific molecular interactions or to introduce a bulky tryptophan residue (W) to produce steric hindrance.
HEK-293 cells (CRL-1573, ATCC) were cultured in DMEM (Thermofisher 11995073) containing 10% fetal bovine serum (Life Technology 16000044) and Penicillin-Streptomycin (100 I.U./mL) and (100 µg/mL), respectively. Cells were transfected with WT DrOTOP1 or mutant DrOTOP1 channels in 35 mm petri dishes, with ~ 500 ng DNA and 2 μL TransIT-LT1 transfection reagent (Mirus Bio Corporation, Cat # MIR2300) following the manufacturer’s protocol. All constructs were subcloned into a pcDNA3.1 vector that adds an N-terminal fusion tag consisting of an octahistidine tag followed by eGFP, a Gly-Thr-Gly-Thr linker and a 3C protease cleavage site ([…]) followed by WT DrOTOP1, WT mOTOP1, WT hOTOP1, or mutated DrOTOP1. Point mutations were generated via In-Fusion Cloning (Takara) using single-stranded DNA primers generated through IDT and sequence confirmed by Sanger sequencing (GeneWiz).
Whole-cell patch-clamp recording was performed as previously described[6],[22],[25]. Recordings were made with an Axopatch 200B amplifier, digitized with a Digidata 1322a 16-bit data acquisition system, acquired with pClamp 8.2 and analyzed with Clampfit 10 (Molecular Devices). Recordings were sampled at 5 kHz and filtered at 1 kHz. Patch Pipettes with resistance of […] were fabricated from borosilicate glass, and only recordings with a giga-Ohm seal were used in analysis. Membrane potential was held at −80 mV for the duration of recordings. At the beginning of recordings and between, cells were washed with Tyrode’s solution (see below). Once a giga-Ohm seal was reached, cells were lifted and placed in front of microcapillary tubes controlled by a Fast-Step perfusion system (Warner Instruments) so that extracellular solutions could be rapidly exchanged during each experiment.
Standard Tyrode’s solution consisted of 145 mM NaCl, 5 mM KCl, MgCl2, 2 mM CaCl2, 20 mM D-Glucose, and 10 mM HEPES (for pH 7.4). All other extracellular patch-clamp solutions contained 160 mM NMDG-Cl, 2 mM CaCl2, and the following buffers: 10 mM HEPES (for pH 7.4), 10 mM MES (for pH 6.5-5.5), 10 mM CHES for pH 10, and 10 mM HomoPIPES for (pH 5.0). pH adjusted with HCl. When adding compounds to extracellular solutions, the concentration of DMSO in solution was never higher than 0.3%. The pipette contained intracellular solution made up of 120 mM Cs-aspartate, 15 mM CsCl, 2 mM Mg-ATP, 5 mM EGTA, 2.4 mM CaCl2 (100 nM free Ca^2+), and 10 mM HEPES with a pH of 7.3. All extracellular solution osmolarity was adjusted to 300 mOsm and intracellular osmolarity was adjusted to 290 mOsm.
All data are presented as mean ± SEM unless otherwise noted, and each data point represents an independent replicant. Inhibition of compounds was quantified as ((I2peak-I1)/(I2peak))*100, where I1 is the current immediately before wash-off and I2peak is the maximum recovered current (Supplementary Fig. 2). Hill coefficients were determined by the following equation: Y = Bmax*X^h/(Kd^h + X^h). Absolute IC50 was determined by the following equation: Fifty = (Top + Baseline)/2 Y = Bottom + (Top-Bottom)/(1 + ((Top-Bottom)/(Fifty-Bottom) − 1)*(AbsoluteIC50/X)^HillSlope). pH50 curves (Fig. 6G inset) were determined using the following equation: Y = Bottom + (Top-Bottom)/(1 + (EC/X)^HillSlope) where EC = EC50 control. Graphs with electrophysiological data were made in Graphpad Prism 10 (Graphpad Software Inc). […]
Background: In patch-clamp work, channel activity is measured electrically.

The term Hill coefficient denotes a measure of the steepness of the concentration-response curve. For orientation: inhibition means how much of the control response was suppressed. Regarding `C=C(C)COc1ccccc1NC(=O)c1nc[nH]c1C` [C2.2], the Hill coefficient is given as 1.22 and the “Shift of IC50 compared with WT” value is reported as ~ 10 fold. In addition, the “inhibition of acid-evoked current, single cells” value (“inhibition … single cells” below) (C2.2 3 uM, Supp. Fig 5G) was 6.531 and 5.9632 and 6.805 and 3.704. Further, the inhibition at 3 µM (C2.2 3 uM, Supp. Fig 5G, read-out: inhibition of acid-evoked current, single cells) was 5.54%. In addition, the “inhibition … single cells” value (C2.2 10 uM, Supp. Fig 5G) is 8.1748 and 9.4295 and 12.133 and 10.612. Besides, the inhibition at 10 µM (C2.2 10 uM, Supp. Fig 5G, read-out: inhibition of acid-evoked current, single cells) was 8.99%. For the same compound, the “inhibition … single cells” value (C2.2 30 uM, Supp. Fig 5G) is 15.885 and 20.063 and 20.497 and 20.983 and 13.0981 and 19.6998. For the same compound, the inhibition at 30 µM (C2.2 30 uM, Supp. Fig 5G, read-out: inhibition of acid-evoked current, single cells) amounted to 23.3%. Under “C2.2 100 uM, Supp. Fig 5G, read-out: inhibition of acid-evoked current, single cells”, the inhibition at 100 µM was 63.2%. Also, the inhibition at 300 µM (C2.2 300 uM, Supp. Fig 5G, read-out: inhibition of acid-evoked current, single cells) stood at 78.2%. Where the note is “best-fit, Supp. Fig 5G”, this compound had a HillSlope of 1.217 and a LogAbsoluteIC50 of 1.918. The IC50 (best-fit, Top 100, Bottom 0, Supp. Fig 5G, read-out: AbsoluteIC50) is 82.9 µM. Also, where the note is “pH 5.5, read-out: IC50”, the IC50 was 82 µM and 82.9 µM.
As for `O=C(/C(=N\O)c1ccccc1)c1ccccc1` [C11, benzil monoxime], the Hill coefficient was 1.57 and the “Shift of IC50 compared with WT” value is ~ 2.5 fold. For the same compound, the “inhibition … single cells” value (C11 10 uM, Supp. Fig 5D) is 2.087 and 1.672. Besides, the inhibition at 10 µM (C11 10 uM, Supp. Fig 5D, read-out: inhibition of acid-evoked current, single cells) was 1.63%. Also, the “inhibition … single cells” value (C11 30 uM, Supp. Fig 5D) was 9.463 and 7.048 and 7.021. Further, the inhibition at 30 µM (C11 30 uM, Supp. Fig 5D, read-out: inhibition of acid-evoked current, single cells) is 7.27%. Moreover, where the note is “C11 100 uM, Supp. Fig 5D”, the “inhibition … single cells” value was 29.7468 and 24.8826 and 21.3974 and 29.1115. In addition, where the note is “C11 100 uM, Supp. Fig 5D, read-out: inhibition of acid-evoked current, single cells”, the inhibition at 100 µM worked out at 29.4%. Further, under “C11 200 uM, Supp. Fig 5D”, the “inhibition … single cells” value is given as 48.5849. Further, for the setting “C11 200 uM, Supp. Fig 5D, read-out: inhibition of acid-evoked current, single cells”, the inhibition at 200 µM was 42.1%. Further, under “C11 300 uM, Supp. Fig 5D”, the “inhibition … single cells” value was 63.41 and 66.778 and 78.1609 and 62.1622 and 62.7854 and 80.0142 and 64.4878. Where the note is “C11 300 uM, Supp. Fig 5D, read-out: inhibition of acid-evoked current, single cells”, the inhibition at 300 µM was determined as 71.5%. Besides, where the note is “best-fit, Supp. Fig 5D”, the HillSlope came to 1.566 and the LogAbsoluteIC50 is given as 2.279. For the same compound, under “best-fit, Top 100, Bottom 0, Supp. Fig 5D, read-out: AbsoluteIC50”, the IC50 worked out at 190 µM. Under “pH 5.5, read-out: IC50”, the IC50 stood at 190 µM.
